One series addresses T1, bovine COX-1 (Ovis aries, UniProt P05979).
T1 construct: purchased Cayman Chemical 560131
T1 sequence (P05979 25-600): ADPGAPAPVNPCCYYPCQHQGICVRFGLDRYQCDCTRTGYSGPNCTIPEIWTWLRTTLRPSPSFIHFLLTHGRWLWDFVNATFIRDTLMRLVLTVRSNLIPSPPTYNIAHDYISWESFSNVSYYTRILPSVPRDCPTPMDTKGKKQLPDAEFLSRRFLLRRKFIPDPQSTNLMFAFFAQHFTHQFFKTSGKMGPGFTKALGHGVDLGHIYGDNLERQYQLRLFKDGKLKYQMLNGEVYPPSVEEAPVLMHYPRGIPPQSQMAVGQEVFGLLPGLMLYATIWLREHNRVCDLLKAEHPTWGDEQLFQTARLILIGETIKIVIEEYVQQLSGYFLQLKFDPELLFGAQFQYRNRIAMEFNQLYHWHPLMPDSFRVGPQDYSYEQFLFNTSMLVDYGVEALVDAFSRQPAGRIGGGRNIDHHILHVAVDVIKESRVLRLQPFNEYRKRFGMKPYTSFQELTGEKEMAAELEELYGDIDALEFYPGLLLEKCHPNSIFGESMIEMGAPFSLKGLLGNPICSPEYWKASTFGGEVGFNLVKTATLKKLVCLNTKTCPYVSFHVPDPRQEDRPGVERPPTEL
Briefly: In vitro COX-1 inhibition, enzyme immunoassay kit (Cayman item no. 560131). It is filed as biochemical. Particulars: mean of two determinations. The source says: (§1) The in vitro COX-1/COX-2 isozyme inhibition studies measure the ability of tested compounds to inhibit bovine COX-1 and human recombinant COX-2 using an enzyme immunoassay (COX inhibitor screening assay kit, item no. 560131) according to the manufacturer’s instructions. […].

For the next series, the target named is T2, human recombinant COX-2 (Homo sapiens, UniProt P35354).
T2 construct: purchased Cayman Chemical 560131
T2 sequence (P35354 18-604): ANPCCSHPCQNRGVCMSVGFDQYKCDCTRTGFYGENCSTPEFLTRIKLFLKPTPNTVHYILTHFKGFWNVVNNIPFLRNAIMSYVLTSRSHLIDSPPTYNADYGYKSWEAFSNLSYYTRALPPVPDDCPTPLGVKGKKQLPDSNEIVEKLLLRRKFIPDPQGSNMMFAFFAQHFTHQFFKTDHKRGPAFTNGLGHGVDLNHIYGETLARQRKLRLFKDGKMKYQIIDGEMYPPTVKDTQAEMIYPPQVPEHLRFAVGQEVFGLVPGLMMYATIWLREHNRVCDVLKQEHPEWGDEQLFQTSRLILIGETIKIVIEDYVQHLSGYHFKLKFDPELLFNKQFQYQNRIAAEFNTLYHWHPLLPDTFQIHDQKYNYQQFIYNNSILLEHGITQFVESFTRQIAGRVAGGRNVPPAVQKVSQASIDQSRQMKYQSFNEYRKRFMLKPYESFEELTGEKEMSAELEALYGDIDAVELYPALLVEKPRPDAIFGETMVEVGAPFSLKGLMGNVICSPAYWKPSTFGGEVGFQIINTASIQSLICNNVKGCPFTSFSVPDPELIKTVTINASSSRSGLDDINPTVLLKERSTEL
Description: In vitro COX-2 inhibition, enzyme immunoassay kit (Cayman item no. 560131). The class given is biochemical.
Description: as §1

In the next series the target is T3, egg albumin (Gallus gallus, UniProt P01012).
T3 sequence (P01012 1-386): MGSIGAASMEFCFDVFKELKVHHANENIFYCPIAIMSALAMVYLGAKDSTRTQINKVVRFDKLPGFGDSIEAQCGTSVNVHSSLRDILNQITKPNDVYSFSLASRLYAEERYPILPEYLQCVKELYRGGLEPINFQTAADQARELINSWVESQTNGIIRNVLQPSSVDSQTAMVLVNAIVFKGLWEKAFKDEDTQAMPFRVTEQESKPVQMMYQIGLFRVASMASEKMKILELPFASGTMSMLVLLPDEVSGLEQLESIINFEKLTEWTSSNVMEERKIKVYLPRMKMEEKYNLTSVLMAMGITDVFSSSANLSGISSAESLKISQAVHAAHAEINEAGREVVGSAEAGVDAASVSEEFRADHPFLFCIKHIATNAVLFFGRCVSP
Briefly: In situ anti-inflammatory assay: inhibition of protein (albumin) denaturation. The following applies: for LogIC50 protein denaturation: GraphPad prism curve fit, IC50 in µM (Figure 3); for IC50: non-linear regression, sigmoidal dose-inhibition fit, GraphPad prism; for inhibition at 1000 µM / % of inhibition ± SEM at conc. 0.1 / % of inhibition ± SEM at conc. 1 / % of inhibition ± SEM at conc. 10 / % of inhibition ± SEM at conc. 100: protein denaturation, three replicates; for inhibition at 1000 µM: conc. 1000 µM, read-out: % of inhibition ± SEM at conc. 1000; for % of inhibition ± SEM at conc. 0.1: conc. 0.1 (µM); for % of inhibition ± SEM at conc. 1: conc. 1 (µM); for % of inhibition ± SEM at conc. 10: conc. 10 (µM); for % of inhibition ± SEM at conc. 100: conc. 100 (µM). On the procedure:
Protein denaturation is used for the evaluation of anti-inflammatory activity. In this methodology, generally, tertiary and secondary protein structures will typically be destroyed by the application of an external molecule or stress. The biological function of most bio-proteins is lost if it is denatured. It is well reported that a basis of inflammation is denaturation of protein.
The reaction mixture is molecules with serial dilutions (1000, 100, 10, 1, 0.1 µM), phosphate buffered saline (PBS; pH 6.4), and egg albumin. The control used was double distilled water (equal volume). […] After attaining ambient temperature, the absorbance of samples was measured spectrophotometrically at 660 nm using vehicle as blank. […] The experiment was performed in triplicate. Percent inhibition of protein denaturation was calculated using the Equation Inhibition (%) of protein denaturation inhibition (%) = (AC − AS)/AC × 100 where AC: absorbance of control, AS: absorbance of sample.

Setting [1] is: human recombinant COX-2, mean of two determinations, read-out: IC50 COX-2.
[2] abbreviates: pIC50 = −Log (IC50) of the COX-2 IC50, read-out: Activity (experimental pIC50, COX-2) (converted).

Each structure is given as a SMILES string. “And” between values parts separate entries of the source, which are not always exact repeats. Equal entries are not always repeated. Where two headings read alike, the source gives them in different places.

In general, inhibition refers to the change of the read-out against control, counted positive when it falls. One may read the melting point as the temperature, or range, at which the solid turns liquid. Molecule `COc1ccc(C=Nn2c(S)nnc2COc2ccc3ccccc3c2)cc1` [Compound 9d, 4-((4-methoxybenzylidene)amino)-5-((naphthalen-2-yloxy)methyl)-4H-1,2,4-triazole-3-thiol] gave a melting point of 177 to 178 °C. At bovine COX-1, this molecule showed an IC50 of 7970 nM. Besides, the “COX-2 S.I. (selectivity index, COX-1 IC50/COX-2 IC50)” value at human recombinant COX-2 came out at 53.1. For the same molecule, the IC50 on human recombinant COX-2 (setting [1]) is 150 nM. The IC50 at human recombinant COX-2 (setting [2]) is 150 nM. Besides, at egg albumin, the LogIC50 protein denaturation is given as 0.9126; the IC50 was 8170 nM and 8180 nM; the inhibition at 1000 µM amounted to 51%; the “% of inhibition ± SEM at conc. 0.1” value is given as 8.97±0.97%. Moreover, on egg albumin, the “% of inhibition ± SEM at conc. 1” value came out at 18.95±1.04%, the “% of inhibition ± SEM at conc. 10” value is 31.86±0.96% and the “% of inhibition ± SEM at conc. 100” value was 49.08±1.05%.

With `COc1ccc(C=Nn2c(COc3ccc4ccccc4c3)nnc2Sc2cnc(N)s2)cc1` [Compound 12d, 5-((4-((4-methoxybenzylidene)amino)-5-((naphthalen-2-yloxy)methyl)-4H-1,2,4-triazol-3-yl)thio)thiazol-2-amine], the melting point is 69 to 70 °C. This molecule also displayed an IC50 against bovine COX-1 of 13000 nM. Besides, the “COX-2 S.I. (selectivity index, COX-1 IC50/COX-2 IC50)” value at human recombinant COX-2 is 311.0 and 325.0. In addition, the IC50 on human recombinant COX-2 (setting [1]) is 40 nM. Besides, the IC50 on human recombinant COX-2 (setting [2]) is 41.8 nM and 40.1 nM. Moreover, at egg albumin, the LogIC50 protein denaturation is listed as -0.008534; the IC50 is 981 nM and 980 nM; the inhibition at 1000 µM was found to be 91.2%; the “% of inhibition ± SEM at conc. 0.1” value was 29.21±1.12%. Also, on egg albumin, the “% of inhibition ± SEM at conc. 1” value turned out to be 59.20±1.34%, the “% of inhibition ± SEM at conc. 10” value was 72.12±1.27% and the “% of inhibition ± SEM at conc. 100” value came out at 89.31±1.26%.

The values above are taken from PMC7694773, “Synthesis, 3D-QSAR, and Molecular Modeling Studies of Triazole Bearing Compounds as a Promising Scaffold for Cyclooxygenase-2 Inhibition” (Pharmaceuticals, 2020).
